Measurements as given in patent US11472846B2, “Compositions and methods for treating diseases by inhibiting exosome release” (priority 2016, dated 2022).

Tests used:
[1] = test system: MDA-MB-231 breast cancer cells; assay: Exosome release by acetylcholinesterase (AchE) assay, MDA-MB-231; format: cell-based, human; conditions: for average AChE concentration day 1 to 5: MDA-MB-231 cells, five-day treatment
Method: 1-6. Exosome isolation and purification. Exosomes were isolated from breast cancer cells by differential centrifugation as previously described (Ali SA. et al., 2010). Untreated tumor cells were used as a control. Briefly, the above treated and untreated cell culture supernatants were centrifuged at 400×g for 10 minutes. The supernatants were transferred to a clear tube and centrifuged at 10,000×g for 30 minutes. The supernatants from the second spin were ultracentrifuged at 200,000×g for 2 hours to pellet exosomes. Finally, the exosome pellets were re-suspended with PBS and stored at 4° C. until used for analysis.
1-7. Exosome characterization by acetylcholinesterase (AchE) assay. Purified exosomes were quantitated by measurement of AchE as described (Ellman et al., 1961). Briefly, a 100 mM dithibionitrobenzoic (DTNB) solution was prepared for use as a stock color indicator, and a 28.9 mg/mL acetylthiocholine iodide in PBS solution was prepared as a stock substrate. The stock substrate stock can be stored at −20° C. up to one month, while the color indicator can be stored at 4° C. for two weeks. A working solution was prepared by mixing 10 mL of PBS with 200 μL of Substrate and 500 μl of DTNB. 50 μL of each exosome sample was transferred to 96 well microtitre plates, and a standard curve was prepared using AchE from 0.98 mU/mL to 2000 mU/mL. After 50 μL of standards were added into separate wells, 200 μL of the working solution was added to all wells. After 20 min incubation, AchE activity was measured at 450 nm using a SpectroMax M5 fluorimeter.
7-5. Exosome isolation and purification. Exosomes were isolated from breast cancer cells and leukemia cells using the ExoQuick-TC Exosome Precipitation Kit (System Biosciencences [SBI], Mountain View Calif.) or the miRCURY Exosome Isolation Kit (EXIQON, Woburn, Mass.) according to the manufacturer's instructions. Untreated tumor cells were used as a control. Briefly, treated and untreated cell culture supernatants (10 mL) were centrifuged at 3000×g for 15 minutes. The resulting supernatants were transferred to a clear tube, 2 mL of ExoQuick-TC buffer was added, mixed and incubated overnight at 4° C. Following the incubation, the sample contents were centrifuged at 1500×g for 30 minutes, the supernatants were aspirated off, the pellets were centrifuged at 1500×g for 5 minutes and any further traces of supernatant were removed (SBI). Alternatively, treated and untreated cell culture supernatants were centrifuged at 10,000×g for 5 minutes to remove cell debris, supernatants (10 ml) were transferred into new tubes, and 4 mL of precipitation buffer (EXIQON) was added, and the contents were mixed and incubated at 4° C. overnight. Following the incubation, the sample contents were centrifuged at 10,000×g for 30 minutes (EXIQON). Exosome-containing pellets were re-suspended in PBS and stored at 4° C. or −80° C.
7-6. Exosome characterization by acetylcholinesterase (AchE) assay. Purified exosomes were quantitated by measurement of AchE as previously described (Huang et al., Oncotarget, 2017. 8(7): pp. 11302-11315). Briefly, 100 mM dithibionitrobenzoic (DTNB) was prepared as a stock color indicator, and prepared a stock substrate containing 28.9 mg/mL of acetylthiocholine iodide in PBS. Substrate stock can be stored at −20° C. up to one month; the stock color indicator can be stored at 4° C. for two weeks. A working solution was prepared by mixing 10 mL of PBS with 200 μL of substrate and 500 μl of DTNB. 50 μL of each exosome sample was transferred to a 96 well microtitre plate, and a standard curve for AchE concentrations was prepared using AchE from 0.98 mU/mL to 2000 mU/mL. After 50 μL of standards were added into separate wells, 200 μL of the working solution was added to each well. After a 20 min incubation, AchE activity was measured at 450 nm using a SpectroMax M5 fluorometer (FIG. 11).

K562 exosomes = assay: Western blot of exosomal proteins (Alix, vimentin, mortalin), K562; format: cell-based, human; conditions: K562 cells, 48 hr treatment
Method: 7-7. Protein analysis by Western blotting. Exosomes were isolated from cell culture supernatants as described above. Protein concentrations were determined by measuring absorbance at 280 nm (Nanodrop 2000). Cultured cells were treated with PEG-SMR-Clu, SMR-CPP peptides, MKT-077, Omeprazole or DMA at 37° C. for 48 hr. To evaluate mortalin, vimentin and exosome expression, Western blot analysis was performed using anti-mortalin (Grp-75), anti-Vimentin and anti-Alix antibodies, respectively (FIG. 12).
Exosomes and cell lysates were prepared by incubating 5-10 min at 95° C. in sample buffer. The lysates were subjected to SDS-PAGE under reducing conditions (150 mM DTT) in 4-20% Criterion™ TGX™ precast gels (BioRad, Hercules, Calif.) and then transferred onto a nitrocellulose membrane (Bio-Rad, Hercules, Calif.). Nitrocellulose membranes were blocked with 5% skim milk (MedSupply, Atlanta, Ga.) in TBS containing 0.05% Tween 20 (TBST) for 1 h at room temperature. The membranes were treated with anti-mortalin (Grp-75) mAb or anti-α-tubulin mAb for cell lysates (FIG. 15, Panels A and B) or with anti-Alix and anti-vimentin or anti-mortalin for exosomes (FIG. 12), followed by peroxidase-conjugated goat anti-mouse IgG. Bands were developed with an ECL chemiluminescent substrate (Santa Cruz Biotechnology, Santa Cruz, Calif.) and exposed to an ImageQuant LAS 4000 imaging system (GE Healthcare, Piscataway, N.J. 08854).

Row | Sequence | AchE activity in exosomes ([1]; MDA-MB-231 cells treated 48 hr, control exosomes 118.48 mU/mL) [mU/mL] | average AChE concentration day 1 to 5 [1] [mU/mL] | Alix expression in exosomes (K562 exosomes) | Mortalin expression in exosomes (K562 exosomes)
1 | NXNVGFPVAAVGFPVHPLSKHPYWSQP (SEQ ID NO: 37) [PEG-SMRwt-Clu] | 66.77 | 42 | significantly decreased | significantly decreased
2 | VGFPVAAVGFPVGRKKRRQRRRPPQ [SMRwt-CPP] | – | 29 | significantly decreased | significantly decreased
